Tests used:
[1] = biological target: T1, mouse EP4 (Mus musculus, UniProt P32240); test: Binding assay using CHO cell membrane expressing prostanoid receptor subtype, [3H]-PGE2 competition; settings: CHO cell membrane fraction, 2.5 nM [3H]-PGE2, 1 hour at room temperature, pH6.0
T1 construct: expressed in transfected cells; host or cells: CHO cells, membrane fraction
Procedure: (§1) For example, in a standard laboratory test, such effects of the compound of the present invention were confirmed by binding assay using cell expressing the prostanoid receptor subtypes. (i) Binding assay using cell expressing the prostanoid receptor subtypes The preparation of membrane fraction was carried out according to the method of Sugimoto et al (J. Biol. Chem., 267, 6463-6466 (1992)), using CHO cell expressing prostanoid receptor subtype (mouse EP1, EP2, EP3, and EP4, and human IP).
(§2) The reaction solution (200 μl) containing membrane fraction (0.5 mg/ml), [^3H]-PGE2 was incubated for 1 hour at room temperature. The reaction was terminated by addition of 3 ml of ice-cold buffer. The mixture was rapidly filtered under reduced pressure through a glass filter (GF/B). The radioactivity associated with the filter was measured by liquid scintillation counter.
(§3) Kd and Bmax values were determined from Scatchard plots [Ann. N.Y. Acad. Sci., 51, 660 (1949)]. Non-specific binding was calculated as the amount bound in the presence of an excess (2.5 μM) of unlabeled PGE2. In the experiment for competition of specific [^3H]-PGE2 binding by the compounds of the present invention, [^3H]-PGE2 was added at a concentration of 2.5 nM and the compound of the present invention was added at various concentrations. The following buffer was used in all reactions. Buffer: 10 mM potassium phosphate (pH6.0), 1 mM EDTA, 10 mM MgCl2, 0.1 M NaCl
(§4) The dissociation constant Ki (μM) of each compound was calculated by the following equation.

[2] = biological target: T2, mouse EP1 (Mus musculus, UniProt P35375); test: as above; settings: CHO cell membrane fraction, 2.5 nM [3H]-PGE2, 1 hour at room temperature, pH6.0
T2 construct: expressed in transfected cells; host or cells: CHO cells, membrane fraction
T2 sequence (P35375 1-405): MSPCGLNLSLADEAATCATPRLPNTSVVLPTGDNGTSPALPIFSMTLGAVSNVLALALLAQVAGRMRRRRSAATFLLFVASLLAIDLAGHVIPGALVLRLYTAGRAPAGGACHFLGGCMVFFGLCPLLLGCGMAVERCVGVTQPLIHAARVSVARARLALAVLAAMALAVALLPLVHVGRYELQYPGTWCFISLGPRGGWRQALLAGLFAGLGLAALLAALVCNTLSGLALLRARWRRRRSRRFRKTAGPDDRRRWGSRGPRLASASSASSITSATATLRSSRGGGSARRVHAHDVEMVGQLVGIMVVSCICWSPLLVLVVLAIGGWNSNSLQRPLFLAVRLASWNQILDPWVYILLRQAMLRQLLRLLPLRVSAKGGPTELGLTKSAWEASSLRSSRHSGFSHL
Procedure: as §1, §2, §3, §4

[3] = biological target: T3, EP3α (Mus musculus, UniProt P30557); test: as above; settings: CHO cell membrane fraction, 2.5 nM [3H]-PGE2, 1 hour at room temperature, pH6.0
T3 construct: expressed in transfected cells; host or cells: CHO cells, membrane fraction
T3 sequence (P30557 1-365): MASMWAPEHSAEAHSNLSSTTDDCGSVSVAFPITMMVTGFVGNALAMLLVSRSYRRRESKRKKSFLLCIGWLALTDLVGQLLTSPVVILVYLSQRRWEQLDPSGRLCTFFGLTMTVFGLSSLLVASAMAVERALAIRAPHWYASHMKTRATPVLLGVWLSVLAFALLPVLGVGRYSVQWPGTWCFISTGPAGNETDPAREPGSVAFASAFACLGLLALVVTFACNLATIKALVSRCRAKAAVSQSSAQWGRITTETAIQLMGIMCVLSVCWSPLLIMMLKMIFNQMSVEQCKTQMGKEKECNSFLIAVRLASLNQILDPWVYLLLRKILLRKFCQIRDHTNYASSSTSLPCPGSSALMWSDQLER
Procedure: as §1, §2, §3, §4

[4] = tested on: rat; test: Toxicity: maximum tolerance dose by i.v. route in rat; assay type: in vivo
Procedure: The toxicity of the compounds of the formula (I) of the present invention is very low and therefore, it is confirmed that these compounds are safe for use as medicine. For example, the maximum tolerance dose of the compound of Example 1 by i.v. route in rat was 30 mg/kg body weight or more.

T1 sequence (P32240 whole entry): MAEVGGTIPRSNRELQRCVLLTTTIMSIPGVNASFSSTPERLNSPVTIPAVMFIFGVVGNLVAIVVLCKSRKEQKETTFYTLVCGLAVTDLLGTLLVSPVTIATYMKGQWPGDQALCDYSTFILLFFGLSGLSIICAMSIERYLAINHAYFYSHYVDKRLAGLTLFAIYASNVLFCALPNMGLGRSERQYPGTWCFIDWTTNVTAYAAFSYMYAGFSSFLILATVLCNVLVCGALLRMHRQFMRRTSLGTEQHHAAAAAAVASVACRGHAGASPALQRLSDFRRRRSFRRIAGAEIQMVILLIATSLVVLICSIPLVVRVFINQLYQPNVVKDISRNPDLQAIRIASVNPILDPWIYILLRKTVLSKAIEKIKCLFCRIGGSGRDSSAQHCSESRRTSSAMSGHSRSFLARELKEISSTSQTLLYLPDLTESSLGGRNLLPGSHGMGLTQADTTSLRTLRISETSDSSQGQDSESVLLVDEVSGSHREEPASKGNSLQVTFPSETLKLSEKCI

| Ki [1] | Ki [2] | Ki [3] | Molecule | maximum tolerance dose [4] |
| --- | --- | --- | --- | --- |
| 2.4 nM | > 10000 nM | 2900 nM | Cc1cc(C[C@H](O)/C=C/[C@H]2[C@H](O)CC(=O)[C@@H]2CCSCCCC(=O)O)ccc1O [3 (1), (11α,13E,15α)-9-oxo-11,15-Dihydroxy-16-(3-methyl-4-hydroxyphenyl)-17,18,19,20-tetranor-5-thiaprost-13-enoic Acid] |  |
|  |  |  | COCc1cccc(C[C@H](O)/C=C/[C@H]2[C@H](O)CC(=O)[C@@H]2CCSCCCC(=O)OC)c1 [Example 1, (11α,13E,15α)-9-oxo-11,15-Dihydroxy-16-(3-methoxymethylphenyl)-17,18,19,20-tetranor-5-thiaprost-13-enoic Acid·Methyl Ester] | ≥ 30 mg/kg body weight |
| 18 nM | > 10000 nM | 1500 nM | COCc1cccc(C[C@H](O)/C=C/[C@@H]2[C@@H](CCSCCCC(=O)O)[C@H](F)C[C@H]2O)c1 [3 (3), (9β,11α,13E,15α)-9-Fluoro-11,15-dihydroxy-16-(3-methoxymethylphenyl)-17,18,19,20-tetranor-5-thiaprost-13-enoic Acid] |  |
| 7.9 nM | > 10000 nM | > 10000 nM | COCc1cccc(C[C@H](O)/C=C/[C@@H]2[C@@H](CCSCCCC(=O)O)[C@H](Cl)C[C@H]2O)c1 [3 (2), (9β,11α,13E,15α)-9-Chloro-11,15-dihydroxy-16-(3-methoxymethylphenyl)-17,18,19,20-tetranor-5-thiaprost-13-enoic Acid] |  |
| 3.8 nM | > 10000 nM | 840 nM | COCc1cccc(C[C@H](O)/C=C/[C@H]2[C@H](O)CC(=O)[C@@H]2CCSCCCC(=O)O)c1 [Example 3, (11α,13E,15α)-9-oxo-11,15-Dihydroxy-16-(3-methoxymethylphenyl)-17,18,19,20-tetranor-5-thiaprost-13-enoic Acid] |  |
| 15 nM | > 10000 nM | 570 nM | CCCOCc1cccc(C[C@H](O)/C=C/[C@H]2[C@H](O)CC(=O)[C@@H]2CCSCCCC(=O)O)c1 [3 (5), (11α,13E,15α)-9-oxo-11,15-Dihydroxy-16-(3-n-propyloxymethylphenyl)-17,18,19,20-tetranor-5-thiaprost-13-enoic Acid] |  |
| 6.2 nM | > 10000 nM | 460 nM | COCc1cccc(C[C@H](O)CC[C@H]2[C@H](O)CC(=O)[C@@H]2CCSCCCC(=O)O)c1 [Example 6, (11α,15α)-9-oxo-11,15-Dihydroxy-16-(3-methoxymethylphenyl)-17,18,19,20-tetranor-5-thiaprostanoic Acid] |  |
| 10 nM | > 10000 nM | 500 nM | (11α,13E,15α)-9-oxo-11,15-Dihydroxy-16-(3-ethoxymethylphenyl)-17,18,19,20-tetranor-5-thiaprost-13-enoic Acid [3 (4)] |  |
